US20250339547A1, “MET BCL-XL INHIBITOR ANTIBODY-DRUG CONJUGATES AND METHODS OF USE THEREOF” (Novartis AG, priority 2022, published 2025)

Key:
Type in all cases: cell-based
[1] = test system: HCC78 lung cancer cell line; assay: HCC78 viability, single agent or 1:1 combination with Paclitaxel (CTG 120h), Example 8; settings: for effect on the viability: HCC-78, single agents, FIG. 3
Method: (§1) HCC78 lung cancer cell line was cultured in the media described above at 37° C. in a humidified atmosphere containing 5% CO2. Cells were seeded in 96 well clear bottom plates (96 well clear-bottom, white, Corning reference 3903) and exposed to the mAbs or ADCs as single agents or in 1:1 combination with Paclitaxel. When in 1:1 combination, both Paclitaxel and the mAb or ADC were serially diluted (9 concentrations each, triplicates). Effect on cell viability was assessed after 5 days of incubation at 37° C./5% CO2 by quantification of cellular ATP levels using CellTiter-Glo reagent (Promega Ref: G7571) at 75 μL reagent/well. All the conditions were tested in triplicates. Luminescence was quantified on a multipurpose plate reader. IC50s were calculated using standard four-parametric curve fitting. IC50 is defined as the compound concentration at which the CTG signal is reduced to 50% of that measured for the control. Two independent experiments were performed (N1 and N2).

BxPC-3 = assay: Pancreatic cancer cell line viability, single agent or 1:1 combination (CTG 120h), Example 10; settings: Homo sapiens, BXPC-3, 120 h, BxPC-3, CTG 120 h
Method: as §1, with “Cell lines were” for “HCC78 lung cancer cell line was”, “Paclitaxel, Trametinib or Gemcitabine.” for “Paclitaxel.”, “the combining partner (Paclitaxel, Trametinib or Gemcitabine)” for “Paclitaxel”

Panc 10.05 = assay: as above; settings: Homo sapiens, Panc1005, 120 h, Panc 10.05, CTG 120 h
Method: as §1, with “Cell lines were” for “HCC78 lung cancer cell line was”, “Paclitaxel, Trametinib or Gemcitabine.” for “Paclitaxel.”, “the combining partner (Paclitaxel, Trametinib or Gemcitabine)” for “Paclitaxel”

Hs766T = assay: as above
Method: as §1, with “Cell lines were” for “HCC78 lung cancer cell line was”, “Paclitaxel, Trametinib or Gemcitabine.” for “Paclitaxel.”, “the combining partner (Paclitaxel, Trametinib or Gemcitabine)” for “Paclitaxel”

KP-4 = assay: as above; settings: Homo sapiens, KP-4, 120 h, KP-4, CTG 120 h
Method: as §1, with “Cell lines were” for “HCC78 lung cancer cell line was”, “Paclitaxel, Trametinib or Gemcitabine.” for “Paclitaxel.”, “the combining partner (Paclitaxel, Trametinib or Gemcitabine)” for “Paclitaxel”

AsPC-1 = assay: as above; settings: Homo sapiens, ASPC1, 120 h, AsPC-1, CTG 120 h
Method: as §1, with “Cell lines were” for “HCC78 lung cancer cell line was”, “Paclitaxel, Trametinib or Gemcitabine.” for “Paclitaxel.”, “the combining partner (Paclitaxel, Trametinib or Gemcitabine)” for “Paclitaxel”

HCC366 = assay: Lung cancer cell line viability, single agent or 1:1 combination (CTG 120h), Example 7; settings: HCC366, 120 h, HCC366, CTG 120 h
Method: (§2) Cell lines were cultured in the media described above at 37° C. in a humidified atmosphere containing 5% CO2. Cells were seeded in 96 well clear bottom plates (96 well clear-bottom, white, Corning reference 3903) and exposed to the mAbs, mAbs mixture, ADCs or ADCs mixture as single agents or in 1:1 combination with Paclitaxel. When in 1:1 combination, both the combining partner (Paclitaxel) and the mAb, mAb mixture, ADC or ADC mixture were serially diluted (9 concentrations each, triplicates). Effect on cell viability was assessed after 5 days of incubation at 37° C./5% CO2 by quantification of cellular ATP levels using CellTiter-Glo reagent (Promega Ref: G7571) at 75 μL reagent/well. All the conditions were tested in triplicates. Luminescence was quantified on a multipurpose plate reader. IC50s were calculated using standard four-parametric curve fitting. IC50 is defined as the compound concentration at which the CTG signal is reduced to 50% of that measured for the control. Two independent experiments were performed (N1 and N2).

CALU1 = assay: as above; settings: Homo sapiens, Calu-1, 120 h, CALU1, CTG 120 h
Method: as §2

NCI-H441 = assay: as above; settings: Homo sapiens, NCI-H441, 120 h, NCI-H441, CTG 120 h
Method: as §2

HCC78 = assay: as above; settings: Homo sapiens, HCC78, 120 h, HCC78, CTG 120 h
Method: as §2

NCI-H1838 = assay: as above; settings: Homo sapiens, NCI-H1838, 120 h, NCI-H1838, CTG 120 h
Method: as §2

HCC827 = assay: as above; settings: Homo sapiens, HCC827, 120 h, HCC827, CTG 120 h
Method: as §2

HCC4006 = assay: as above; settings: Homo sapiens, HCC4006, 120 h, HCC4006, CTG 120 h
Method: as §2

NCI-H1975 = assay: as above; settings: Homo sapiens, NCI-H1975, 120 h, NCI-H1975, CTG 120 h
Method: as §2

LU65 = assay: as above; settings: Homo sapiens, Lu-65, 120 h, LU65, CTG 120 h
Method: as §2

Cc1c(Nc2nc3ccccc3s2)nnc2c1CCCN2c1ccc(-c2cnn(C[C@]34C[C@]5(C)C[C@](C)(C3)C[C@@](OCCNCCCO)(C5)C4)c2C)c(C(=O)O)n1 [P25, 6-[3-(1,3-benzothiazol-2-ylamino)-4-methyl-6,7-dihydro-5H-pyrido[2,3-c]pyridazin-8-yl]-3-[1-[[3-[2-(3-hydroxypropylamino)ethoxy]-5,7-dimethyl-1-adamantyl]methyl]-5-methyl-pyrazol-4-yl]pyridine-2-carboxylic acid]
effect on the viability [1]: induced a dose dependent decrease in the viability | IC50 (BxPC-3; mean): 21800 nM | IC50 (BxPC-3; n1): 20800 nM | IC50 (BxPC-3; n2): 22800 nM | IC50 (Panc 10.05; mean): 73.5 nM | IC50 (Panc 10.05; n1): 61.6 nM | IC50 (Panc 10.05; n2): 85.3 nM | IC50 (Hs766T; mean): 1640 nM | IC50 (Hs766T; n1): 1900 nM | IC50 (Hs766T; n2): 1370 nM | IC50 (KP-4; mean): 17000 nM | IC50 (KP-4; n1): 14700 nM | IC50 (KP-4; n2): 19200 nM | IC50 (AsPC-1; mean): 244 nM | IC50 (AsPC-1; n1): 368 nM | IC50 (AsPC-1; n2): 121 nM | IC50 (HCC366; Mean): 29.4 nM | IC50 (HCC366; n1): 14.9 nM | IC50 (HCC366; n2): 43.8 nM | IC50 (CALU1; Mean): 14.6 nM | IC50 (CALU1; n1): 1.78 nM | IC50 (CALU1; n2): 14.6 nM | IC50 (NCI-H441; Mean): 1020 nM | IC50 (NCI-H441; n1): 1010 nM | IC50 (NCI-H441; n2): 1030 nM | IC50 (HCC78; Mean): 2260 nM | IC50 (HCC78; n1): 3220 nM | IC50 (HCC78; n2): 1310 nM | IC50 (NCI-H1838; Mean): 34 nM | IC50 (NCI-H1838; n1): 41.4 nM | IC50 (NCI-H1838; n2): 26.7 nM | IC50 (HCC827; Mean): 108 nM | IC50 (HCC827; n1): 57.4 nM | IC50 (HCC827; n2): 158 nM | IC50 (HCC4006; Mean): 7460 nM | IC50 (HCC4006; n1): 7460 nM | IC50 (HCC4006; n2): > 10000 nM | IC50 (NCI-H1975; Mean): 9030 nM | IC50 (NCI-H1975; n1): 9030 nM | IC50 (NCI-H1975; n2): > 10000 nM | IC50 (LU65; Mean): > 10000 nM | IC50 (LU65; n1): 5610 nM | IC50 (LU65; n2): > 10000 nM

CC(=O)O[C@H]1C(=O)[C@@]2(C)[C@H]([C@H](OC(=O)c3ccccc3)[C@]3(O)C[C@H](OC(=O)[C@H](O)[C@@H](NC(=O)c4ccccc4)c4ccccc4)C(C)=C1C3(C)C)[C@]1(OC(C)=O)CO[C@@H]1C[C@@H]2O [Paclitaxel, paclitaxel]
Maximal effect on the viability (viability decrease) ([1]; HCC-78, FIG. 3): 80% | effect on the viability [1]: induced a dose dependent decrease in the viability | IC50 (BxPC-3; mean): 0.93 nM | IC50 (BxPC-3; n1): 0.6 nM | IC50 (BxPC-3; n2): 1.25 nM | IC50 (Panc 10.05; mean): 7.93 nM | IC50 (Panc 10.05; n1): 5.65 nM | IC50 (Panc 10.05; n2): 10.2 nM | IC50 (Hs766T; mean): > 30000 nM | IC50 (Hs766T; n2): > 30000 nM | IC50 (KP-4; mean): 2.33 nM | IC50 (KP-4; n1): 0.47 nM | IC50 (KP-4; n2): 4.19 nM | IC50 (AsPC-1; mean): 10.2 nM | IC50 (AsPC-1; n1): 12.4 nM | IC50 (AsPC-1; n2): 8.06 nM | IC50 (HCC366; Mean): 7.45 nM | IC50 (HCC366; n1): 4 nM | IC50 (HCC366; n2): 10.9 nM | IC50 (CALU1; Mean): 25.6 nM | IC50 (CALU1; n1): 13.7 nM | IC50 (CALU1; n2): 37.4 nM | IC50 (NCI-H441; Mean): 6.48 nM | IC50 (NCI-H441; n1): 9.2 nM | IC50 (NCI-H441; n2): 3.75 nM | IC50 (HCC78; Mean): 3.4 nM | IC50 (HCC78; n1): 2.52 nM | IC50 (HCC78; n2): 4.29 nM | IC50 (NCI-H1838; Mean): > 300 nM | IC50 (NCI-H1838; n1): > 300 nM | IC50 (NCI-H1838; n2): > 300 nM | IC50 (HCC827; Mean): 5.27 nM | IC50 (HCC827; n1): 4.11 nM | IC50 (HCC827; n2): 6.42 nM | IC50 (HCC4006; Mean): 4.66 nM | IC50 (HCC4006; n1): 5.9 nM | IC50 (HCC4006; n2): 3.42 nM | IC50 (NCI-H1975; Mean): 2.53 nM | IC50 (NCI-H1975; n1): 3.34 nM | IC50 (NCI-H1975; n2): 1.72 nM | IC50 (LU65; Mean): 29.7 nM | IC50 (LU65; n1): 32.4 nM | IC50 (LU65; n2): 27 nM
